Calls of active or inactive are those of the source. The rule behind the calls is not given here.

Test [1] deals with T1, DNA topoisomerase 1 (Homo sapiens) (UniProt P11387).
T1 sequence (whole entry): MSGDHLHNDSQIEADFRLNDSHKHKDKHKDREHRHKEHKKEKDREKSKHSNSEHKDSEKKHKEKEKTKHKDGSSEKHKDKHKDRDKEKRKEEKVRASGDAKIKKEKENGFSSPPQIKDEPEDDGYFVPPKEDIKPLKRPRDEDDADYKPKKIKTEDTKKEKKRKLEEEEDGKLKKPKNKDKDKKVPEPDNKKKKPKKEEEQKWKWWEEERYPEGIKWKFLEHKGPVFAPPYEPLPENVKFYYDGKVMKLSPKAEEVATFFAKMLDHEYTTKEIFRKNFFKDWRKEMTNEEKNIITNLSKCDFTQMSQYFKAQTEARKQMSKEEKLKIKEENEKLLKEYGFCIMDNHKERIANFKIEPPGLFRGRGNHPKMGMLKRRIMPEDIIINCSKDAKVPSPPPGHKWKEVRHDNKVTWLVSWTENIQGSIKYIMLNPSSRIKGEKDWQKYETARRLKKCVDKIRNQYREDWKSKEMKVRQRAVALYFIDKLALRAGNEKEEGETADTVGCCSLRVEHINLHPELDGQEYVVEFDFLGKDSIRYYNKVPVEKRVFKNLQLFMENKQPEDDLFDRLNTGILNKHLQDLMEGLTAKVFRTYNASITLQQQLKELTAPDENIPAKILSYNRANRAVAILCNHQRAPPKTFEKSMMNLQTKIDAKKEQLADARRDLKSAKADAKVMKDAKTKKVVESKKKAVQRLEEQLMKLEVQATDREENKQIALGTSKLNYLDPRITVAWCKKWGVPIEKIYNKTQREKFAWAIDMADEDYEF
Nature of the test: Relative activity against DNA topoisomerase I was measured at concentration of 166 uM to that of camptothecin; Inactive.

The target of test [2] is T1, DNA topoisomerase 1 (Homo sapiens). Briefly: Relative activity against Topoisomerase I was measured at concentration of 25 uM to that of camptothecin; Inactive.
Test [3] has the same target. Briefly: Relative activity against DNA topoisomerase I was measured at concentration of 83 uM to that of camptothecin; Active, 10 fold less than camptothecin.
The target is the same in test [4]. Briefly: Relative activity against DNA topoisomerase I was measured at concentration of 833 uM to that of camptothecin; Inactive.
The target is the same in test [5]. Briefly: Relative activity against DNA topoisomerase I was measured at concentration of 200 uM to that of camptothecin; Inactive.
For test [6] the target is unchanged. Briefly: Relative activity against DNA topoisomerase I was measured at concentration of 12 uM to that of camptothecin.
The target is the same in test [7]. Nature of the test: Relative activity against Topoisomerase I was measured at concentration of 360 uM to that of camptothecin; Active, 35 fold less than camptothecin.
For test [8] the target is unchanged. Briefly: Relative activity against DNA topoisomerase I was measured at concentration of 554 uM to that of camptothecin; Active, 50 fold less than camptothecin.
Test [9] has the same target. Nature of the test: Relative activity against DNA topoisomerase I was measured at concentration of 277 uM to that of camptothecin; inactive.
Test [10] has the same target. Nature of the test: Relative activity against DNA topoisomerase I was measured at concentration of 625 uM to that of camptothecin; Inactive.

`COC(=O)Cc1cc(=O)n2c(c1C(=O)OC)-c1nc3ccccc3cc1C2`: the Relative activity result in [1] is “inactive”.
For the compound `CCC1C(=O)OCc2c1cc1n(c2=O)Cc2ccccc2-1` (configuration not stated), the Relative activity entry in test [2] is “inactive”. Also, the Relative activity result in [3] was “Active”.
Take `CCC(C(=O)OC)c1cc(=O)n2c(c1C(=O)OC)C1Cc3ccccc3CC1C2` (configuration not stated): the Relative activity entry in [4] is “inactive”.
For `CCC(C(=O)OC)c1cc2n(c(=O)c1)Cc1cc3ccccc3nc1-2` (configuration not stated), the Relative activity result in test [5] was “inactive”.
On to `CCC1C(=O)OCc2c1c(C(=O)OC)c1n(c2=O)Cc2ccccc2-1` (configuration not stated), for which, in [6], the Relative activity entry was “inactive”. Further, the Relative activity result in [7] is “Active”.
Regarding `CCC1C(=O)OCc2c1c(C(=O)OC)c1n(c2=O)CC2Cc3ccccc3CC12` (configuration not stated), the Relative activity entry in test [4] was “inactive”.
Take `COC(=O)Cc1cc2n(c(=O)c1)Cc1cc3ccccc3nc1-2`: the Relative activity result in test [8] is “Active”. For the same compound, in test [9], the Relative activity result was “inactive”.
As to `COC(=O)Cc1cc(=O)n2c(c1C(=O)OC)C1Cc3ccccc3CC1C2` (configuration not stated), the Relative activity result in test [4] is “inactive”.
`CCC(C(=O)OC)c1cc(=O)n2c(c1C(=O)OC)-c1nc3ccccc3cc1C2` (configuration not stated): the Relative activity result in test [10] is “inactive”.
